Source: patent publication US8299097B2, “Methods for treating inflammatory disorders” (The Brigham and Women's Hospital, Inc., priority 2008, dated 2012)

How the values were obtained:
BALB/c mice = assay: Cys-LT amplification of pulmonary inflammation in OVA sensitized, low-dose OVA challenged BALB/c mice; format: in vivo, mouse; conditions: intranasal cys-LT 12 h before each 0.1% OVA challenge
Procedure: FIG. 3. LTE4-mediated amplification of allergen-induced pulmonary inflammation. 3A. BAL fluid total cell counts (top) with percentages (middle) and total numbers (bottom) of eosinophils. Mice were sensitized twice with alum-precipitated ovalbumin (OVA). […] A separate sensitized group of mice were treated with 1% OVA as a positive control. 3B. Quantitative analysis if pulmonary inflammation, measured as the number of bronchovascular bundles with cellular infiltrates per 15 such bundles per mouse. 3C. Representative fields of H & E-stained lungs from mice from the indicated experimental groups. 3D. Morphometric analysis of goblet cell metaplasia, measured as the numbers of PAS-positive cells per mm of bronchial basal lamina. 3E. Representative PAS stains showing goblet cells (arrows). Results in 3A, 3B, and 3D are mean±SEM from 8-9 mice per group.
Thus, it was sought to determine whether either cys-LT amplified pulmonary inflammation induced by the inhalation of low-dose allergen in sensitized mice. Two weeks after sensitization with chicken egg ovalbumin (OVA) by intraperitoneal injection, BALB/c mice received inhalation challenges on three consecutive days with low-dose OVA (0.1%) for 30 minutes. Twelve hours before each challenge, the mice received intranasal LTD4, LTE4, or a buffer control. A cohort of mice treated with 1% OVA were maintained as a positive control. The mice were then euthanized, their BAL fluid collected, and their lungs examined histologically for evidence of inflammation and goblet cell metaplasia, a dominant pathologic signature of Th2-polarized mucosal inflammation. […] The extent of the cellularity and goblet cell responses of the LTE4-treated animals approached the levels of these parameters in the mice treated with 1% OVA.
Male BALB/c mice (6-8 weeks old) received intraperitoneal injections of reagent-grade chicken egg ovalbumin (OVA) (10 μg) precipitated with aluminum hydroxide ([…]) on days 0 and 7. […] Twelve hours after each dose, the mice were exposed to an aerosol of 0.1% OVA for 30 min delivered by an ultrasonic nebulizer. […] The mice were euthanized 24 hours after their third and final aerosol challenge. In some experiments, the mice received clopidogrel (500 μg/ml) in drinking water for 3 days before receiving the first intranasal dose of LTs. The treatment was continued throughout the procedure.
15 bronchovascular bundles of each mouse were evaluated.

human P2Y12 = human P2Y12 (Homo sapiens, UniProt Q9H244); assay: ERK activation (phosphorylation immunoblot) in P2Y12-expressing CHO cells; format: cell-based; design: polyhistidine (HIS) tag (C); expressed in transfected cells; conditions: for ERK activation by agonist: stimulated 15 min
Procedure: FIG. 1. Activation by recombinant human P2Y12 receptors in response to cys-LTs. The human P2Y12 receptor cDNA was cloned in forward and reverse orientation into the expression vector pEF1/His B and transfected into CHO cells using Fugene HD reagent. Stably-expressing clones were selected using G418 (1000 μg/ml), and expression of the construct was confirmed by cytofluorographic detection of the HIS tag. 1A. […] Results in second experiment were identical. 1B. SDS-PAGE immunoblots showing phosphorylation of ERK2 by CHO cells stably expressing human P2Y12 receptors in reverse (negative control) or forward orientations. […] The blots were stripped and re-probed with an antibody (Ab) recognizing total ERK1 and ERK2. […] 1C. Effect of the selective P2Y12 receptor antagonist 2-MesAMP (MeS) on ligand-induced ERK phosphorylation. P2Y12 receptor expressing CHO cells were stimulated with the same doses of agonists used in 1A, in the absence or presence of 2-MesAMP (100 μM). 1D. Comparison of P2Y12 receptor-mediated responses to cys-LTs with those of recombinant human CysLT1R and CysLT2R expressed in CHO cells, and the effect of the CysLT1R antagonist MK571 (1 μM). Data in 1B-1D are from individual experiments that were repeated at least 3 times with similar results.
FIG. 8. […] Cells were stably transfected with the human P2Y12 construct and stimulated for 15 minutes with the indicated ligand concentrations. […] Results in a second experiment were similar.
A P2Y12 receptor cDNA was amplified by reverse transcriptase polymerase chain reaction (RT-PCR) from RNA extracted from primary hMCs and cloned into a mammalian expression vector. Expression was confirmed by detection of a histidine (HIS) tag by flow cytometry. Another cohort of CHO cells were stably transfected with a P2Y12 receptor construct in reverse orientation as a negative control. […] The cys-LT-induced ERK activation blocked by pre-treatment of the cells with pertussis toxin (PTX), was attenuated by treatment with the P2Y12 receptor-selective antagonist 2-methylthioadenosine monophosphate (2-MesAMP) (FIG. 1C), and was resistant to MK571, an inhibitor that blocks CysLT1R and some P2Y receptors (Mamedova, L., et al. 2005. Biochem. Pharmacol. 71:115-125). […] These responses were resistant to PTX and 2-MesAMP, and susceptible to MK571 in the case of the CysLT1R transfectants.
A human P2Y12 receptor cDNA was amplified by 30 cycles of PCR from reverse-transcribed total RNA extracted from primary cord blood hMCs. The primer sequences were 5′-[…] (SEQ ID NO: 1) and 3′-[…] (SEQ ID NO: 2). The fragment was cloned into a TA vector (INVITROGEN™). After verifying the nucleotide sequence, the fragment was subcloned into the multiple cloning site of the expression vector pEF1/His B, encoding a C-terminal polyhistidine (HIS) tag. […]

Sequence of human P2Y12 (Q9H244 whole entry): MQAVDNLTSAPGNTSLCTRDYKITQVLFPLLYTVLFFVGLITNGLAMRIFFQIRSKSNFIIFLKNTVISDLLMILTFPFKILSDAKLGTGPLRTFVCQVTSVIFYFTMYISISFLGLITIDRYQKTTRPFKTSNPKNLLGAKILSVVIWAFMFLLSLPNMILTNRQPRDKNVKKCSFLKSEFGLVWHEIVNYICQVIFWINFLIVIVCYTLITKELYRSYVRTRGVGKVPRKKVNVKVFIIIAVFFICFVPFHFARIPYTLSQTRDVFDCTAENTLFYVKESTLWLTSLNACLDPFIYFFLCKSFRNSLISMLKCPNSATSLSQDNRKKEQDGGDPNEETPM

SMILES	BAL fluid eosinophilia (BALB/c mice)	bronchovascular inflammation (BALB/c mice)	goblet cell metaplasia (BALB/c mice)	ERK activation by agonist (human P2Y12)	effect on cys-LT-induced ERK activation (human P2Y12; 2-MesAMP 100 μM, MK571 1 μM)
CCCCC/C=C\C\C=C/C=C/C=C/[C@@H](SC[C@H](N)C(=O)NCC(=O)O)[C@@H](O)CCCC(=O)O [LTD4]	did not increase	tended to slightly potentiate	tended to slightly potentiate	robust, dose-dependent ERK activation	
CCCCC/C=C\C\C=C/C=C/C=C/[C@@H](SC[C@H](N)C(=O)O)[C@@H](O)CCCC(=O)O [LTE4]	significantly enhanced	significantly enhanced	significantly enhanced	robust, dose-dependent ERK activation	
CN(C)C(=O)CCSC(SCCC(=O)O)c1cccc(/C=C/c2ccc3ccc(Cl)cc3n2)c1 (stereo not drawn) [MK571]					resistant
